Data published in publication PMC6921279 (Frontiers in Endocrinology, 2019).

Test system: EGF-stimulated Akt phosphorylation
Experiment: Modulation of EGF-stimulated Akt phosphorylation in COS-7 cells
Type: cell-based
Details: wortmannin 100 nM, 30 min pretreatment; 10 ng/ml EGF, 10 min
Method: COS-7 cells (from the American Type Culture Collection) were cultured at 37°C in a humidified atmosphere of 95% air, 5% CO2, in DMEM supplemented with 10% FBS, 100 μg/ml streptomycin, and 100 units/ml penicillin (COS-7 growth medium). Transient transfections were performed using LipofectAMINE (Life Technologies: Gaithersburg, MD) as described previously ([27]). Cells were seeded at 8 × 10^5 cells/10-cm dish in COS-7 medium and cultured for 3 days before transfection. COS-7 cells were transfected in 5 ml/dish OptiMEM containing 10 μg/ml LipofectAMINE with empty vector, pcDNA3 encoding the HA-CRF1R or the HA-CRF1R-Δ386 mutant. […] After replacing the transfection medium with fresh growth medium, transfected COS-7 cells were cultured for 1 day. […]
The protocols for measuring total and phosphorylated ERK1/2, c-Src, PYK2, Akt, and EGFR have been previously published ([28], [29]). […] The labeled bands were quantified using the Quantity One 4.6.3 software program (Bio-Rad).
Figure 8 Involvement of the PI3K pathway in CRF-stimulated ERK1/2 phosphorylation. […] Total cell lysates were separated by SDS-PAGE and analyzed by immunoblotting with anti-p-Akt Ser^473 (A) or anti-p-ERK1/2 Thr^202/Tyr^204 (A–C), as described in Materials and Methods. Akt and ERK1/2 phosphorylation were quantitated by densitometry, and mean values were plotted from three to five independent experiments. […]

In the case of `COC[C@H]1OC(=O)c2coc3c2[C@@]1(C)C1=C(C3=O)[C@@H]2CCC(=O)[C@@]2(C)C[C@H]1OC(C)=O` [wortmannin], the “effect on EGF-stimulated Akt phosphorylation” value was “abolished the stimulatory action of EGF on Akt”.
